Inconclusive results and toxic doses are left out.

The assay relates to L1210 leukemia ip in BDF1 mice, survival T/C. Kind of assay: NCI In Vivo Anticancer Drug Screen. Data for tumor model L1210 Leukemia (intraperitoneal) in B6D2F1 (BDF1) mice. As to conditions: endpoint: mean survival time, higher = longer survival. The method, boiled down: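 Transplantable tumor model; survival measured in treated vs vehicle control mice. Value = treated/control.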

Setting [1] is: dose: 50.0 mg/kg/injection, schedule: Q01DX001 (ip), vehicle: saline.
[2] abbreviates: dose: 100.0 mg/kg/injection, schedule: Q01DX001 (ip), vehicle: saline.
The mark [3] stands for this setting: dose: 200.0 mg/kg/injection, schedule: Q01DX001 (ip), vehicle: saline.
[4] abbreviates: dose: 400.0 mg/kg/injection, schedule: Q01DX001 (ip), vehicle: saline.
Where [5] appears, read: dose: 100.0 mg/kg/injection, schedule: Q01DX009 (ip), vehicle: saline with Tween-80.
Where [6] appears, read: dose: 200.0 mg/kg/injection, schedule: Q01DX009 (ip), vehicle: saline with Tween-80.
The mark [7] stands for this setting: dose: 100.0 mg/kg/injection, schedule: Q04DX003 (ip), vehicle: Klucel (hydroxypropylcellulose) (HPC).
The mark [8] stands for this setting: dose: 200.0 mg/kg/injection, schedule: Q04DX003 (ip), vehicle: Klucel (hydroxypropylcellulose) (HPC).
Setting [9] is: dose: 400.0 mg/kg/injection, schedule: Q04DX003 (ip), vehicle: Klucel (hydroxypropylcellulose) (HPC).
[10] abbreviates: dose: 100.0 mg/kg/injection, schedule: Q01DX001 (ip), vehicle: carboxymethylcellulose (CMC).
Where [11] appears, read: dose: 200.0 mg/kg/injection, schedule: Q01DX001 (ip), vehicle: carboxymethylcellulose (CMC).
[12] abbreviates: dose: 400.0 mg/kg/injection, schedule: Q01DX001 (ip), vehicle: carboxymethylcellulose (CMC).
Where [13] appears, read: dose: 50.0 mg/kg/injection, schedule: Q01DX001 (ip), vehicle: carboxymethylcellulose (CMC).
Setting [14] is: dose: 100.0 mg/kg/injection, schedule: Q01DX009 (ip), vehicle: Klucel (hydroxypropylcellulose) (HPC).
Setting [15] is: dose: 400.0 mg/kg/injection, schedule: Q01DX009 (ip), vehicle: saline.

Consider `COC1OC(COC(=O)c2ccc([N+](=O)[O-])cc2)C(OCc2ccccc2)C1OC(=O)c1ccc([N+](=O)[O-])cc1` (centres undefined), for which the T/C under setting [1] was 113 % of control, the T/C under setting [2] is 105 % of control, the T/C under setting [3] was 116 % of control and the T/C under setting [4] was 105 % of control.
As for `CC(C)c1ccc([N+](=O)[O-])cc1`, the T/C runs as follows: under setting [5], 96 % of control; under setting [6], 106 % of control.
Consider `COc1ccc(C(CCCC(=O)O)C(CC(=O)O)C(=O)O)cc1` (centres undefined), for which the T/C is, setting by setting: (dose: 75.0 mg/kg/injection, schedule: Q04DX003 (ip), vehicle: saline) 96 % of control; (dose: 150.0 mg/kg/injection, schedule: Q04DX003 (ip), vehicle: saline) 103 % of control; (dose: 300.0 mg/kg/injection, schedule: Q04DX003 (ip), vehicle: saline) 112 % of control.
Consider `CC(C)(C)S(=O)(=O)c1nc2ccccc2s1`, for which the T/C under setting [7] is 93 % of control, the T/C under setting [8] is 107 % of control and the T/C under setting [9] is 90 % of control.
As for `NS(=O)(=O)c1ccc(-c2ccc([As](=O)(O)O)cc2)cc1`, the T/C by setting is: (dose: 5.0 mg/kg/injection, schedule: Q01DX001 (ip), vehicle: saline) 96 % of control; (dose: 10.0 mg/kg/injection, schedule: Q01DX001 (ip), vehicle: saline) 87 % of control; (dose: 20.0 mg/kg/injection, schedule: Q01DX001 (ip), vehicle: saline) 98 % of control; (dose: 40.0 mg/kg/injection, schedule: Q01DX001 (ip), vehicle: saline) 96 % of control; (dose: 80.0 mg/kg/injection, schedule: Q01DX001 (ip), vehicle: saline) 98 % of control.
With `CCOC(=O)N/N=C/c1cccc([N+](=O)[O-])c1`, the T/C (dose: 75.0 mg/kg/injection, schedule: Q01DX001 (ip), vehicle: saline) is 104 % of control; the T/C (dose: 150.0 mg/kg/injection, schedule: Q01DX001 (ip), vehicle: saline) is 100 % of control; the T/C (dose: 300.0 mg/kg/injection, schedule: Q01DX001 (ip), vehicle: saline) is 101 % of control.
For `S=P(NCCCCCCCCNP(=S)(N1CC1)N1CC1)(N1CC1)N1CC1`, the T/C runs as follows: under setting [10], 102 % of control; under setting [11], 119 % of control; under setting [12], 107 % of control.
As for `COc1ccc(CCCCI)cc1`, the T/C (dose: 100.0 mg/kg/injection, schedule: Q01DX001 (ip), vehicle: acetone) was 98 % of control; the T/C (dose: 100.0 mg/kg/injection, schedule: Q04DX003 (ip), vehicle: acetone) is 93 % of control; the T/C (dose: 200.0 mg/kg/injection, schedule: Q01DX001 (ip), vehicle: acetone) was 95 % of control; the T/C (dose: 200.0 mg/kg/injection, schedule: Q04DX003 (ip), vehicle: acetone) is 94 % of control; the T/C (dose: 400.0 mg/kg/injection, schedule: Q01DX001 (ip), vehicle: acetone) was 115 % of control; the T/C (dose: 400.0 mg/kg/injection, schedule: Q04DX003 (ip), vehicle: acetone) is 95 % of control.
As for `CC(=O)Nc1ccc(S(N)(=O)=O)cc1`, the T/C reads like this: under setting [13], 95 % of control; under setting [10], 101 % of control; under setting [14], 103 % of control; under setting [11], 95 % of control; under setting [12], 97 % of control.
In the case of `COc1ccc(C(=O)NC(=S)Nc2cccc(C)c2C)cc1`, the T/C is 102 % of control under setting [14]; 93 % of control under setting [7]; 102 % of control (dose: 200.0 mg/kg/injection, schedule: Q01DX009 (ip), vehicle: Klucel (hydroxypropylcellulose) (HPC)); 89 % of control under setting [8]; 95 % of control (dose: 400.0 mg/kg/injection, schedule: Q01DX009 (ip), vehicle: Klucel (hydroxypropylcellulose) (HPC)); 98 % of control under setting [9].
As for `CC1(C)c2ccccc2C(C)(C(Cl)(Cl)Cl)c2ccc(Cl)cc21` (centres undefined), the T/C reads like this: under setting [13], 98 % of control; under setting [10], 90 % of control; (dose: 100.0 mg/kg/injection, schedule: Q01DX009 (ip), vehicle: saline) 92 % of control; under setting [11], 93 % of control; (dose: 200.0 mg/kg/injection, schedule: Q01DX009 (ip), vehicle: saline) 95 % of control; under setting [12], 95 % of control. The T/C under setting [15] is 97 % of control.
In the case of `O=C(CCCC(=O)N/N=C/c1cccc([N+](=O)[O-])c1)N/N=C\c1cccc([N+](=O)[O-])c1`, the T/C is, setting by setting: under setting [1], 101 % of control; under setting [2], 95 % of control; under setting [3], 95 % of control; under setting [4], 91 % of control.
For `CCCCCCCCCCCCCCCCCCCCC1CC(=O)OC1=O` (centres undefined), the T/C is 91 % of control under setting [7], 92 % of control under setting [8] and 91 % of control under setting [9].
On to `NNC(=O)C(N)Cc1ccccc1` (centres undefined), for which the T/C is 101 % of control under setting [2] and 105 % of control under setting [3].
In the case of `CCc1c(N)nc(N)nc1Nc1ccc(C)cc1`, the T/C reads like this: (dose: 6.0 mg/kg/injection, schedule: Q01DX Z (ip), vehicle: methylcellulose (MC)) 95 % of control; (dose: 12.0 mg/kg/injection, schedule: Q01DX Z (ip), vehicle: methylcellulose (MC)) 97 % of control.
`CSc1ccnc2n[nH]nc12`: the T/C is, setting by setting: (dose: 100.0 mg/kg/injection, schedule: Q01DX001 (ip), vehicle: Klucel (hydroxypropylcellulose) (HPC)) 102 % of control; under setting [7], 94 % of control; (dose: 200.0 mg/kg/injection, schedule: Q01DX001 (ip), vehicle: Klucel (hydroxypropylcellulose) (HPC)) 104 % of control; under setting [8], 101 % of control.
Consider `COc1ccccc1CN1CCCN(Cc2ccccc2OC)C1c1cc(I)cc(I)c1O`, for which the T/C runs as follows: under setting [10], 98 % of control; under setting [11], 98 % of control; under setting [12], 93 % of control.
Take `Clc1ncnc2c1ncn2C1CCCO1` (centres undefined): the T/C runs as follows: under setting [2], 97 % of control; (dose: 178.0 mg/kg/injection, schedule: Q01DX009 (ip), vehicle: saline) 113 % of control; under setting [3], 96 % of control; (dose: 267.0 mg/kg/injection, schedule: Q01DX009 (ip), vehicle: saline) 113 % of control; under setting [4], 112 % of control; under setting [15], 154 % of control.
As for `C/C=C\C(O)(C(=O)OC)c1ccccc1` (centres undefined), the T/C runs as follows: (dose: 100.0 mg/kg/injection, schedule: Q01DX001 (ip), vehicle: other) 105 % of control; under setting [2], 97 % of control; (dose: 200.0 mg/kg/injection, schedule: Q01DX001 (ip), vehicle: other) 107 % of control; under setting [3], 92 % of control; (dose: 400.0 mg/kg/injection, schedule: Q01DX001 (ip), vehicle: other) 107 % of control; under setting [4], 92 % of control.
Consider `Cc1ccc(S(=O)(=O)Nc2ccccc2N=Cc2ccc(N(CCCl)CCCl)cc2)cc1`, for which the T/C is 115 % of control under setting [10], 106 % of control under setting [11] and 90 % of control under setting [12].
For `O=C(O)c1cc2ccc3ccccc3c2oc1=O` the same measures were 87 % of control, 92 % of control and 92 % of control.
Take `COc1ccc(CC(=O)NCCc2ccc3c(c2)OCO3)cc1OC`: the T/C (dose: 50.0 mg/kg/injection, schedule: Q01DX009 (ip), vehicle: saline with Tween-80) was 89 % of control; the T/C under setting [5] is 91 % of control; the T/C (dose: 100.0 mg/kg/injection, schedule: Q04DX003 (ip), vehicle: saline with Tween-80) is 92 % of control; the T/C under setting [6] was 92 % of control; the T/C (dose: 200.0 mg/kg/injection, schedule: Q04DX003 (ip), vehicle: saline with Tween-80) was 96 % of control.
For `NNS(=O)(=O)c1ccc([N+](=O)[O-])cc1`, the T/C by setting is: (dose: 12.5 mg/kg/injection, schedule: Q01DX009 (ip), vehicle: Klucel (hydroxypropylcellulose) (HPC)) 109 % of control; (dose: 25.0 mg/kg/injection, schedule: Q01DX009 (ip), vehicle: Klucel (hydroxypropylcellulose) (HPC)) 106 % of control; (dose: 50.0 mg/kg/injection, schedule: Q01DX009 (ip), vehicle: Klucel (hydroxypropylcellulose) (HPC)) 101 % of control.
With `NC(=O)NNC(=O)C(Cl)(Cl)Cl`, the T/C was 108 % of control (dose: 25.0 mg/kg/injection, schedule: Q04DX002 (ip), vehicle: saline); 99 % of control (dose: 50.0 mg/kg/injection, schedule: Q04DX002 (ip), vehicle: saline); 101 % of control (dose: 100.0 mg/kg/injection, schedule: Q04DX002 (ip), vehicle: saline).

The values above are taken from PubChem BioAssay AID248 (DTP/NCI, 2004).
